# In PMC10354055, “An optimized Nurr1 agonist provides disease-modifying effects in Parkinson’s disease models” (Nature Communications, 2023):
# “And” between values parts separate entries of the source, which are not always exact repeats. Equal entries are not always repeated.
# Tests used:
# Nurr1-LBD [1] = biological target: Nurr1-LBD (Homo sapiens, UniProt P43354); assay: [3H]-CQ radioligand competition binding assay
# Experimental: Saturation and competition assays were performed as previously described. For saturation assay, 0.2 µM of Nurr1-LBD and 125-10,000 nM of [^3H]-CQ were incubated in binding buffer (20 mM sodium acetate buffer (pH 5.2)) at 4 °C overnight. […] Assay mixtures were applied to GF/B filters (Brandel Inc.) to capture Nurr1-LBD bounded ligands. […] All graphs and IC50 values were generated using the non-linear regression program in GraphPad Prism version 8.0.2.
# TH+ neurons = assay: Primary rat VM neuron-glia co-culture, TH+ neurons (ICC); assay type: cell-based
# Experimental: After blocking with 10% normal donkey serum (NDS) and 0.1% Triton X-100 solution for 1 h at room temperature, cells were incubated with primary antibodies against TH (1:1,000; Pel Freez, P40401) and Iba-1 (1:500; Abcam, ab5076) in 1% NDS and 0.1% Triton X-100 solution for overnight at 4 °C. […] Fluorescence images were taken using a KEYENCE microscope (BZ-X800; KEYENCE).
# Nurr1-LBD [2] = biological target: T1, Nurr1-LBD (Mus musculus, UniProt Q06219); assay: Luciferase reporter assay, Nurr1-LBD, MN9D cells; assay type: cell-based
# T1 construct: transfected with pCMV-fNurr1, pGAL-Nurr1(LBD), pGAL-Nor1(LBD) or pGAL-Nur77(LBD) and reporter construct; expressed in transfected cells; host or cells: SK-N-BE(2)C (human neuroblastoma), N27-A (rat dopaminergic), MN9D (murine dopaminergic)
# T1 sequence (Q06219 360-595 limits assumed): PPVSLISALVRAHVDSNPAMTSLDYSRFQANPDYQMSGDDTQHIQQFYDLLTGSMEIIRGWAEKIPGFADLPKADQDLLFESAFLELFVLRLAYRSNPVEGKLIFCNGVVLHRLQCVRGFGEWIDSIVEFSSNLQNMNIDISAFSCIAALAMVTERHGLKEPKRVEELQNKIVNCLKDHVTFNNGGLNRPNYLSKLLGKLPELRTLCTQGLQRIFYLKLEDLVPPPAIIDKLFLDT
# Excerpt: (§1) Nurr1 transactivity was normalized to β-galactosidase activity.
# Nurr1 mRNA = Nurr1 mRNA level, qRT-PCR, MN9D cells; assay type: cell-based, mouse; settings: for Relative Nurr1 mRNA expression (fold of Cont.): Fig. S4f; for Relative Nurr1 mRNA expression (fold of +GFP Basal): Fig. S4h
# Experimental: Total RNA was extracted using the GeneJET RNA Purification Kit (Thermo Fisher Scientific) and 100 ng of RNA was subjected to cDNA synthesis using Invitrogen Superscript cDNA Synthesis Kit (Invitrogen) according to the manufacturer’s protocol. qRT-PCR was performed using a CFX Connect Real-Time System (Bio-Rad) in a 20 μl volume mixture containing 2X SsoAdvanced Universal SYBR Green Supermix (Bio-Rad), 100 ng/μl of forward and reverse primers, and 1 μl of cDNA sample. Gene expression levels were quantified by the 2^∆∆CT method (Ct of target gene—Ct of glyceraldehyde-3-phosphate dehydrogenase (GAPDH). The following primers were used for qRT-PCR: TH forward: 5′-[…]-3′, reverse: 5′-[…]-3′; DAT forward: 5′-[…]-3′, reverse: 5′-[…]-3′; AADC forward: 5′-[…]-3′, reverse: 5′-[…]-3′; VMAT2 forward: 5′-[…]-3′, reverse: 5′-[…]-3′; c-Ret forward: 5′-[…]-3′, reverse: 5′-[…]-3′; TNFα forward: 5′-[…]-3′; reverse: 5′-[…]-3′; GAPDH, forward 5′-[…]-3′, reverse 5′-[…]-3′.
# Lenti-GFP, -αSyn^WT, and -αSyn^A53T viruses were generated separately by co-transfecting each shuttle plasmid with lentivirus packaging plasmids into HEK293T cells using lipofectamine 2000 (Invitrogen). Briefly, 2 μg each FUW inducible shuttle plasmid, 2 μg FUW-rtTA, 2 μg psPax2 and 1.5 μg MD2.G were mixed and transfected into HEK293T cells. After 48 h, viral supernatants were collected and centrifuged at 1000g for 10 min, and subsequently filtered through a 0.45 μm filter. Lentiviruses were transduced into MN9D cells with 8 μg/ml of polybrene and the viral supernatant was removed and replaced with fresh medium a day after transduction.
# Nurr1-LBD point mutants [3] = biological target: T2, Nurr1-LBD point mutants (Mus musculus, UniProt Q06219); assay: Luciferase assay with point-mutants of Nurr1-LBD, SK-N-BE(2)C cells;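 further: Firefly luciferase normalized to beta-galactosidase activity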; assay type: cell-based; settings: Fig. 1g, WT
# T2 construct: expressed in transfected cells; host or cells: SK-N-BE(2)C
# T2 sequence (Q06219 whole entry, change not shown, the tested form may be a part): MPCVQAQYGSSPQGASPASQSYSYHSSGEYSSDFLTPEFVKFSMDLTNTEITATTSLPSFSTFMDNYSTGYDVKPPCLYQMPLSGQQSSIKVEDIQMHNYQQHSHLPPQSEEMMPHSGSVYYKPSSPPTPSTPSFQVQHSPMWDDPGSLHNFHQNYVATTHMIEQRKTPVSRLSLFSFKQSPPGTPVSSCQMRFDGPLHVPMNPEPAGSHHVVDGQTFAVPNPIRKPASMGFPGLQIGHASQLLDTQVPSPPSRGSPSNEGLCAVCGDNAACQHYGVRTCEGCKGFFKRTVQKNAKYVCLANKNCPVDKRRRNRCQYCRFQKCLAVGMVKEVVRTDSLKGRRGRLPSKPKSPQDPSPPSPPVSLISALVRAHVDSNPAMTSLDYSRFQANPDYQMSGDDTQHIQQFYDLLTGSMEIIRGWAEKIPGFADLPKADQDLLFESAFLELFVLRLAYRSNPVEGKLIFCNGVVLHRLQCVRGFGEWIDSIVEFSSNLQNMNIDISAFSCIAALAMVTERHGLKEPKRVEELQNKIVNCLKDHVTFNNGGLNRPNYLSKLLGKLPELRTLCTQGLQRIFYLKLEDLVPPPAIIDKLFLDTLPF
# Experimental: as §1
# (§2) Nurr1 mutants were generated using the QuikChange ǁ XL site-directed mutagenesis kit (Agilent Technologies) according to the manufacturer’s instruction. Mutagenesis reactions were carried out on the plasmid of mouse Nurr1 cloned into pcDNA3.1 backbone, and then verified by sequencing.
# Nurr1-LBD point mutants [4] = biological target: T3, Nurr1-LBD point mutants (Mus musculus, UniProt Q06219, A586F); assay: as above; assay type: cell-based; settings: Fig. 1g, A586F
# T3 construct: expressed in transfected cells; host or cells: SK-N-BE(2)C
# T3 sequence (Q06219 whole entry A586F, the tested form may be a part): as the sequence (Q06219 whole entry, change not shown, the tested form may be a part) above, with A586F counted along it
# Experimental: as §1, §2
# Nurr1-LBD point mutants [5] = biological target: T4, Nurr1-LBD point mutants (Mus musculus, UniProt Q06219, S441A); assay: as above; assay type: cell-based; settings: Fig. 1g, S441A
# T4 construct: expressed in transfected cells; host or cells: SK-N-BE(2)C
# T4 sequence (Q06219 whole entry S441A, the tested form may be a part): as the sequence (Q06219 whole entry, change not shown, the tested form may be a part) above, with S441A counted along it
# Experimental: as §1, §2
# Nurr1-LBD point mutants [6] = biological target: T5, Nurr1-LBD point mutants (Mus musculus, UniProt Q06219, K590A); assay: as above; assay type: cell-based; settings: Fig. 1g, K590A
# T5 construct: expressed in transfected cells; host or cells: SK-N-BE(2)C
# T5 sequence (Q06219 whole entry K590A, the tested form may be a part): as the sequence (Q06219 whole entry, change not shown, the tested form may be a part) above, with K590A counted along it
# Experimental: as §1, §2
# Iba-1+ microglia = assay: Primary rat VM neuron-glia co-culture, Iba-1+ microglia (ICC); assay type: cell-based; settings: for Iba-1+ cells (% of control): Fig. 2g
# Experimental: Primary rat VM neuron-glia co-culture was prepared from E14 rat embryos (Fisher 344; Charles River)[33]. […] After blocking with 10% normal donkey serum (NDS) and 0.1% Triton X-100 solution for 1 h at room temperature, cells were incubated with primary antibodies against TH (1:1,000; Pel Freez, P40401) and Iba-1 (1:500; Abcam, ab5076) in 1% NDS and 0.1% Triton X-100 solution for overnight at 4 °C. Alexa Fluor 568- or Alexa Fluor 488-conjugated anti-rabbit or anti-goat secondary antibodies (1:500; Invitrogen) were incubated following the primary antibody incubation, and then cover glasses were mounted using FluoShield^TM mounting media (Sigma-Aldrich). Fluorescence images were taken using a KEYENCE microscope (BZ-X800; KEYENCE).
# Sequence of Nurr1-LBD (Homo sapiens, UniProt P43354) (P43354 360-595 limits assumed, species assumed): as the sequence (Q06219 360-595 limits assumed) above
smiles,measurement,setting,value
"CCN1CCN(c2cc(N3CCN(CC)CC3)nc(NCCNc3ccnc4cc(Cl)ccc34)n2)CC1 [4A7C-301, N^1-(4,6-bis(4-ethylpiperazin-1-yl)pyrimidin-2-yl)-N^2-(7-chloroquinolin-4-yl)ethane-1,2-diamine]",% of Specific binding,"Nurr1-LBD [1]; Fig. 1h, competitor conc. 0.0001 (µM)",97.5500% and 87.3600% and 114.0900%
same,% of Specific binding,"Nurr1-LBD [1]; Fig. 1h, competitor conc. 0.001 (µM)",93.3315% and 98.5361% and 111.1323%
same,% of Specific binding,"Nurr1-LBD [1]; Fig. 1h, competitor conc. 0.01 (µM)",98.5241% and 100.1201% and 98.1018%
same,% of Specific binding,"Nurr1-LBD [1]; Fig. 1h, competitor conc. 0.1 (µM)",94.8655% and 104.0393% and 99.1513%
same,% of Specific binding,"Nurr1-LBD [1]; Fig. 1h, competitor conc. 1 (µM)",96.7105% and 99.4183% and 101.5113%
same,% of Specific binding,"Nurr1-LBD [1]; Fig. 1h, competitor conc. 10 (µM)",93.5241% and 103.1201% and 98.1018%
same,% of Specific binding,"Nurr1-LBD [1]; Fig. 1h, competitor conc. 100 (µM)",102.0642% and 94.9839% and 98.3253%
same,% of Specific binding,"Nurr1-LBD [1]; Fig. 1h, competitor conc. 1000 (µM)",95.6857% and 99.8470% and 98.1514%
same,% of Specific binding,"Nurr1-LBD [1]; Fig. 1h, competitor conc. 10000 (µM)",97.6484% and 92.6051% and 102.8033%
same,% of Specific binding,"Nurr1-LBD [1]; Fig. 1h, competitor conc. 100000 (µM)",94.7542% and 97.7292% and 100.6669%
same,% of Specific binding,"Nurr1-LBD [1]; Fig. 1h, competitor conc. 1000000 (µM)",94.8500% and 98.0088% and 99.1887%
same,IC50,"Nurr1-LBD [1]; competition with [3H]-CQ, Fig. 1h",48.2 nM and 50 nM
same,binding affinity for Nurr1-LBD relative to CQ,Nurr1-LBD [1]; from radioligand and TR-FRET IC50s,20 fold and ~ 20 fold
same,concentration of maximal effect on mDAN rescue,TH+ neurons; MPP+ or LPS,500 nM
same,"concentration of maximal effect, times lower than CQ",TH+ neurons; mDAN rescue,40 times
same,Luciferase activity (fold),"Nurr1-LBD [2]; Fig. S3a, 0.001 µM",1.103 fold and 1.1109 fold and 1.11 fold
same,Luciferase activity (fold),"Nurr1-LBD [2]; Fig. S3a, 0.01 µM",2.094 fold and 2.1057 fold and 1.929 fold
same,Luciferase activity (fold),"Nurr1-LBD [2]; Fig. S3a, 0.1 µM",4.339 fold and 4.261 fold and 4.17 fold
same,Luciferase activity (fold),"Nurr1-LBD [2]; Fig. S3a, 1 µM",7.077 fold and 6.781 fold and 6.645 fold
same,Luciferase activity (fold),"Nurr1-LBD [2]; Fig. S3a, 10 µM",6.849 fold and 6.689 fold and 7.128 fold
same,Luciferase activity (fold),"Nurr1-LBD [2]; Fig. S1d, conc. 1 µM, replicates",6.4567 fold and 6.799 fold and 6.563 fold
same,Luciferase activity (fold),"Nurr1-LBD [2]; Fig. S1d, conc. 10 µM, replicates",6.943 fold and 6.5332 fold and 6.663 fold
same,Luciferase activity (fold),"Nurr1-LBD [2]; Fig. S1d, conc. 10-1 µM, replicates",3.61 fold and 3.7661 fold and 3.609 fold
same,Luciferase activity (fold),"Nurr1-LBD [2]; Fig. S1d, conc. 10-2 µM, replicates",1.993 fold and 2.235 fold and 2.074 fold
same,Luciferase activity (fold),"Nurr1-LBD [2]; Fig. S1d, conc. 10-3 µM, replicates",1.142 fold and 1.201 fold and 1.251 fold
same,potency to activate Nurr1 relative to CQ,"Nurr1-LBD [2]; MN9D cells, Supplementary Fig. 3a,b",approximately 50 fold
same,Relative Nurr1 mRNA expression (fold of Cont.),Nurr1 mRNA; w/ MPP+,0.4287 fold of Cont. and 0.414 fold of Cont. and 0.4438 fold of Cont.
same,Relative Nurr1 mRNA expression (fold of Cont.),Nurr1 mRNA; w/o MPP+,1.004 fold of Cont. and 0.9452 fold of Cont. and 0.974 fold of Cont.
same,Relative Nurr1 mRNA expression (fold of +GFP Basal),Nurr1 mRNA; + GFP,1.067 fold of +GFP Basal and 0.9407 fold of +GFP Basal and 1.002 fold of +GFP Basal
same,Relative Nurr1 mRNA expression (fold of +GFP Basal),Nurr1 mRNA; + αSynA53T,0.5837 fold of +GFP Basal and 0.5113 fold of +GFP Basal and 0.5463 fold of +GFP Basal
same,Relative Nurr1 mRNA expression (fold of +GFP Basal),Nurr1 mRNA; + αSynWT,0.7154 fold of +GFP Basal and 0.8045 fold of +GFP Basal and 0.7587 fold of +GFP Basal
same,Nurr1 mRNA levels (in words),Nurr1 mRNA; MPP+ or αSyn overexpression,did not alter
same,Luciferase activity (fold),Nurr1-LBD point mutants [3],18.0755 fold and 17.4184 fold and 17.5507 fold and 18.6728 fold
same,Luciferase activity (fold),Nurr1-LBD point mutants [4],16.9378 fold and 18.2618 fold and 17.9787 fold and 16.7737 fold
same,Luciferase activity (fold),Nurr1-LBD point mutants [5],8.067 fold and 8.586 fold and 8.69 fold and 8.14 fold
same,Luciferase activity (fold),Nurr1-LBD point mutants [6],9.662 fold and 10.9664 fold and 10.3366 fold and 9.703 fold
same,Iba-1+ cells (% of control),"Iba-1+ microglia; 4A7C-301 only, 50 nM, 0.05 µM",77.52 % of control and 86.67 % of control and 96.15 % of control
same,Iba-1+ cells (% of control),"Iba-1+ microglia; 4A7C-301 only, 500 nM, 0.5 µM",69.77 % of control and 67.62 % of control and 86.92 % of control
same,Iba-1+ cells (% of control),"Iba-1+ microglia; + LPS, 5 nM, 0.005 µM",240.31 % of control and 188.57 % of control and 210 % of control
same,Iba-1+ cells (% of control),"Iba-1+ microglia; + LPS, 50 nM, 0.05 µM",160.47 % of control and 128.57 % of control and 139.23 % of control
same,Iba-1+ cells (% of control),"Iba-1+ microglia; + LPS, 500 nM, 0.5 µM",102.4 % of control and 80.95 % of control and 100.31 % of control
same,Iba-1+ cells (% of control),"Iba-1+ microglia; + LPS, 1000 nM, 1 µM",86.82 % of control and 87.62 % of control and 103.69 % of control
same,Iba-1+ cells (% of control),"Iba-1+ microglia; + MPP+, 5 nM, 0.005 µM",114.73 % of control and 125.71 % of control and 144.62 % of control
same,Iba-1+ cells (% of control),"Iba-1+ microglia; + MPP+, 50 nM, 0.05 µM",96.12 % of control and 105.71 % of control and 78.46 % of control
same,Iba-1+ cells (% of control),"Iba-1+ microglia; + MPP+, 500 nM, 0.5 µM",64.34 % of control and 63.81 % of control and 42.31 % of control
same,Iba-1+ cells (% of control),"Iba-1+ microglia; + MPP+, 1000 nM, 1 µM",42.64 % of control and 72.38 % of control and 48.46 % of control
same,concentration of optimal suppression of microglial activation,Iba-1+ microglia; against LPS,500 nM
same,"concentration of optimal suppression, times lower than CQ",Iba-1+ microglia; against LPS,40 times
